Laboratory results: article PMC6722648, “Phenazine Derivatives with Anti-Inflammatory Activity from the Deep-Sea Sediment-Derived Yeast-Like Fungus Cystobasidium laryngis IV17-028” (Marine Drugs, 2019)
Read-outs that look alike come from different tables or passages of the source.

Key:
[1] = tested on: LPS-induced NO production in RAW 264.7 cells; assay: NO assay: nitrite quantification (Griess) in LPS-stimulated macrophages; type: cell-based, murine; settings: Mus musculus, RAW264.7, LPS 200 ng/mL, 24 h, read-out: EC50 against NO assay
Experimental: NO2^− accumulation was used as an indicator of NO production as described previously. RAW 264.7 cells were plated at 5 × 10^5 cells/mL, pre-treated with various concentrations (0.3, 1, 3, 10 or 30 μg/mL) of 1–7 and stimulated with LPS (200 ng/mL) for 24 h. The supernatants were mixed with an equal volume of Griess reagent (1% sulfanilamide, 0.1% naphthylethylenediamine dihydrochloride and 2% phosphoric acid) and incubated at room temperature for 10 min. NaNO2 was used to generate a standard curve, and the concentration of nitrite in the medium was determined by measuring optical density at 540 nm. Cell viability was determined by XTT assay as described previously. And it was confirmed that the concentration of compounds used in this study has no significant effect on cell viability.

[2] = Stability to light and on storage (observation)

SMILES | EC50 ([1]; compounds 0.3-30 μg/mL) [µg/mL] | EC50 [1] [µM] | storage stability ([2]; in the dark and fridge) | stability under the light ([2]; under the light) | colour change of yellow needle form in light ([2]; day light as well as fluorescent light, also previously reported [9]) | colour change in hydrophilic solvents under the light ([2]; methanol and dimethyl sulfoxide, under the light)
O=C(O)c1cccc2nc3ccccc3nc12 [Compound 5, phenazine-1-carboxylic acid] | 17.1 | 76.1 | – | – | – | –
C[C@@H](O)c1cccc2nc3c([C@@H](C)O)cccc3nc12 [Compound 3, saphenol] | 14.7 | 54.7 | – | – | – | –
CC(OC(=O)c1ccccc1N)c1cccc2nc3c(C(=O)O)cccc3nc12 (centres unmarked) [Compound 1, 6-[1-(2-aminobenzoyloxy)ethyl]-1-phenazinecarboxylic acid] | 18.1 | 46.8 | changelessly stored in the dark and fridge for several weeks | easily changed under the light | – | –
CO[C@H](C)c1cccc2nc3c(C(=O)O)cccc3nc12 [Compound 6] | 5.53 | 19.6 | – | – | – | –
C[C@@H](O)c1cccc2nc3c(C(N)=O)cccc3nc12 [Compound 2, saphenic amide] | > 30 | – | – | – | – | –
CC(=O)c1cccc2nc3c(C(=O)O)cccc3nc12 [Compound 7, 6-acetyl-phenazine-1-carboxylic acid] | 5.32 | 20 | – | – | – | –
C[C@@H](O)c1cccc2nc3c(C(=O)O)cccc3nc12 [Compound 4, (R)-saphenic acid] | 6.15 | 22.9 | – | – | turned brown after several hours | quickly turned from yellow into orange
